Source: patent US12077503B2, “Substituted cyclic amides and their use as herbicides” (FMC CORPORATION, priority 2015, dated 2024)

Tests used:
Assay type in all cases: in vivo
[1] = test system: barnyardgrass (Echinochloa crus-galli); test: Test G Pre-Emergence Protocol; details: Echinochloa crus-galli, pre-emergence, 312 h, evaluated after 13 days; for pest or weed control at 15.625 g/ha: 15.625 g ai/ha; for pest or weed control at 15.625 g/ha / pest or weed control at 250 g/ha: read-out: Barnyardgrass damage rating (100=total damage to plant; 0=no damage to plant); for pest or weed control at 62.5 g/ha: 62.5 g ai/ha, 100=total damage to plant, 0=no damage to plant, read-out: Barnyardgrass damage rating; for pest or weed control at 250 g/ha: 250 g ai/ha
Outline: (§1)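 Test compound in 0.5% Tween 20 acetone/water (50:50) was applied at three rates (15.625, 62.5, 250 g/ha) to soil sown one day earlier. After 13 days plants were scored for injury, where 0 means unaffected and 100 means completely damaged.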

[2] = test system: corn (Zea mays); test: Test G Pre-Emergence Protocol; details: Zea mays, pre-emergence, 312 h, evaluated after 13 days; for plant injury at 15.625 g/ha: 15.625 g ai/ha; for plant injury at 15.625 g/ha / plant injury at 250 g/ha: read-out: Corn damage rating (100=total damage to plant; 0=no damage to plant); for plant injury at 62.5 g/ha: 62.5 g ai/ha, 100=total damage to plant, 0=no damage to plant, read-out: Corn damage rating; for plant injury at 250 g/ha: 250 g ai/ha
Outline: as §1

[3] = test system: giant foxtail (Setaria faberi); test: Test G Pre-Emergence Protocol; details: Setaria faberi, pre-emergence, 312 h, evaluated after 13 days; for pest or weed control at 15.625 g/ha: 15.625 g ai/ha; for pest or weed control at 15.625 g/ha / pest or weed control at 250 g/ha: read-out: Foxtail, Giant damage rating (100=total damage to plant; 0=no damage to plant); for pest or weed control at 62.5 g/ha: 62.5 g ai/ha, 100=total damage to plant, 0=no damage to plant, read-out: Foxtail, Giant damage rating; for pest or weed control at 250 g/ha: 250 g ai/ha
Outline: as §1

[4] = test system: ivy-leaved morning glory (Ipomoea hederacea); test: Test G Pre-Emergence Protocol; details: Ipomoea, pre-emergence, 312 h, evaluated after 13 days; for pest or weed control at 15.625 g/ha: 15.625 g ai/ha; for pest or weed control at 15.625 g/ha / pest or weed control at 250 g/ha: read-out: Morningglory, Ivy-leaved damage rating (100=total damage to plant; 0=no damage to plant); for pest or weed control at 250 g/ha: 250 g ai/ha
Outline: as §1

[5] = test system: redroot pigweed (Amaranthus retroflexus); test: Test G Pre-Emergence Protocol; details: Amaranthus retroflexus, pre-emergence, 312 h, evaluated after 13 days; for pest or weed control at 15.625 g/ha: 15.625 g ai/ha; for pest or weed control at 15.625 g/ha / pest or weed control at 250 g/ha: read-out: Pigweed, Redroot damage rating (100=total damage to plant; 0=no damage to plant); for pest or weed control at 62.5 g/ha: 62.5 g ai/ha, 100=total damage to plant, 0=no damage to plant, read-out: Pigweed, Redroot damage rating; for pest or weed control at 250 g/ha: 250 g ai/ha
Outline: as §1

[6] = test system: velvetleaf (Abutilon theophrasti); test: Test G Pre-Emergence Protocol; details: Abutilon theophrasti, pre-emergence, 312 h, evaluated after 13 days; for pest or weed control at 15.625 g/ha: 15.625 g ai/ha; for pest or weed control at 15.625 g/ha / pest or weed control at 250 g/ha: read-out: Velvetleaf damage rating (100=total damage to plant; 0=no damage to plant); for pest or weed control at 62.5 g/ha: 62.5 g ai/ha, 100=total damage to plant, 0=no damage to plant, read-out: Velvetleaf damage rating; for pest or weed control at 250 g/ha: 250 g ai/ha
Outline: as §1

[7] = test system: barnyardgrass (Echinochloa crus-galli); test: Test G Post-Emergence Protocol; details: Echinochloa crus-galli, post-emergence, 312 h, read-out: Barnyardgrass damage rating; for pest or weed control at 15.625 g/ha: 15.625 g ai/ha, evaluated after 13 days (100=total damage to plant; 0=no damage to plant); for pest or weed control at 62.5 g/ha: 62.5 g ai/ha; for pest or weed control at 62.5 g/ha / pest or weed control at 250 g/ha: evaluated after 13 days, 100=total damage to plant, 0=no damage to plant; for pest or weed control at 250 g/ha: 250 g ai/ha
Outline: (§2)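 Sow in soil; grow 8 d (24/16 °C, 14 h light, 65% humidity); spray 15.625/62.5/250 g/ha in acetone:water 50:50 + 0.5% Tween 20; grow on, water twice daily; score damage 0–100 at 13 d.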

[8] = test system: corn (Zea mays); test: Test G Post-Emergence Protocol; details: Zea mays, post-emergence, 312 h, read-out: Corn damage rating; for plant injury at 15.625 g/ha: 15.625 g ai/ha, evaluated after 13 days (100=total damage to plant; 0=no damage to plant); for plant injury at 62.5 g/ha: 62.5 g ai/ha; for plant injury at 62.5 g/ha / plant injury at 250 g/ha: evaluated after 13 days, 100=total damage to plant, 0=no damage to plant; for plant injury at 250 g/ha: 250 g ai/ha
Outline: as §2

[9] = test system: giant foxtail (Setaria faberi); test: Test G Post-Emergence Protocol; details: Setaria faberi, post-emergence, 312 h, read-out: Foxtail, Giant damage rating; for pest or weed control at 15.625 g/ha: 15.625 g ai/ha, evaluated after 13 days (100=total damage to plant; 0=no damage to plant); for pest or weed control at 62.5 g/ha: 62.5 g ai/ha; for pest or weed control at 62.5 g/ha / pest or weed control at 250 g/ha: evaluated after 13 days, 100=total damage to plant, 0=no damage to plant; for pest or weed control at 250 g/ha: 250 g ai/ha
Outline: as §2

[10] = test system: ivy-leaved morning glory (Ipomoea hederacea); test: Test G Post-Emergence Protocol; details: Ipomoea, post-emergence, 312 h, read-out: Morningglory, Ivy-leaved damage rating; for pest or weed control at 15.625 g/ha: 15.625 g ai/ha, evaluated after 13 days (100=total damage to plant; 0=no damage to plant); for pest or weed control at 62.5 g/ha: 62.5 g ai/ha; for pest or weed control at 62.5 g/ha / pest or weed control at 250 g/ha: evaluated after 13 days, 100=total damage to plant, 0=no damage to plant; for pest or weed control at 250 g/ha: 250 g ai/ha
Outline: as §2

[11] = test system: redroot pigweed (Amaranthus retroflexus); test: Test G Post-Emergence Protocol; details: Amaranthus retroflexus, post-emergence, 312 h, read-out: Pigweed, Redroot damage rating; for pest or weed control at 15.625 g/ha: 15.625 g ai/ha, evaluated after 13 days (100=total damage to plant; 0=no damage to plant); for pest or weed control at 62.5 g/ha: 62.5 g ai/ha; for pest or weed control at 62.5 g/ha / pest or weed control at 250 g/ha: evaluated after 13 days, 100=total damage to plant, 0=no damage to plant; for pest or weed control at 250 g/ha: 250 g ai/ha
Outline: as §2

[12] = test system: velvetleaf (Abutilon theophrasti); test: Test G Post-Emergence Protocol; details: Abutilon theophrasti, post-emergence, 312 h, read-out: Velvetleaf damage rating; for pest or weed control at 15.625 g/ha: 15.625 g ai/ha, evaluated after 13 days (100=total damage to plant; 0=no damage to plant); for pest or weed control at 62.5 g/ha: 62.5 g ai/ha; for pest or weed control at 62.5 g/ha / pest or weed control at 250 g/ha: evaluated after 13 days, 100=total damage to plant, 0=no damage to plant; for pest or weed control at 250 g/ha: 250 g ai/ha
Outline: as §2

Cc1cc(C2CN(C)C(=O)C2C(=O)Nc2cccc(F)c2F)cc(C)c1F (centres unmarked) [Compound 1712]
80%: pest or weed control at 62.5 g/ha [1] | pest or weed control at 15.625 g/ha [3] | pest or weed control at 62.5 g/ha [7] | pest or weed control at 15.625 g/ha [9] | pest or weed control at 62.5 g/ha [9] | pest or weed control at 250 g/ha [9]
50%: pest or weed control at 15.625 g/ha [7]
40%: plant injury at 15.625 g/ha [8] | pest or weed control at 250 g/ha [12]
90%: pest or weed control at 250 g/ha [1] | pest or weed control at 62.5 g/ha [3] | pest or weed control at 250 g/ha [3] | pest or weed control at 250 g/ha [7]
70%: plant injury at 250 g/ha [2] | plant injury at 62.5 g/ha [8] | plant injury at 250 g/ha [8] | pest or weed control at 250 g/ha [10]
30%: pest or weed control at 62.5 g/ha [10]
0%: plant injury at 15.625 g/ha [2] | pest or weed control at 15.625 g/ha [4] | pest or weed control at 62.5 g/ha ([4]; 62.5 g ai/ha, 100=total damage to plant, 0=no damage to plant, read-out: Morningglory, Ivy-leaved damage rating) | pest or weed control at 62.5 g/ha [5] | pest or weed control at 15.625 g/ha [6] | pest or weed control at 62.5 g/ha [6] | pest or weed control at 15.625 g/ha [11]
10%: plant injury at 62.5 g/ha [2] | pest or weed control at 15.625 g/ha [5] | pest or weed control at 250 g/ha [5] | pest or weed control at 15.625 g/ha [10] | pest or weed control at 15.625 g/ha [12] | pest or weed control at 62.5 g/ha [12]
60%: pest or weed control at 15.625 g/ha [1]
20%: pest or weed control at 250 g/ha [4] | pest or weed control at 250 g/ha [6] | pest or weed control at 62.5 g/ha [11] | pest or weed control at 250 g/ha [11]

CN1C[C@H](c2cc(C(C)(C)C)ncn2)[C@@H](C(=O)Nc2cccc(F)c2F)C1=O (racemic) [Compound 1667]
10%: pest or weed control at 62.5 g/ha [1] | pest or weed control at 62.5 g/ha [3] | pest or weed control at 250 g/ha [7]
20%: pest or weed control at 250 g/ha [1] | pest or weed control at 250 g/ha [3] | pest or weed control at 250 g/ha [9]
0%: pest or weed control at 15.625 g/ha [1] | plant injury at 15.625 g/ha [2] | plant injury at 62.5 g/ha [2] | plant injury at 250 g/ha [2] | pest or weed control at 15.625 g/ha [3] | pest or weed control at 15.625 g/ha [4] | pest or weed control at 15.625 g/ha [5] | pest or weed control at 62.5 g/ha [5] | pest or weed control at 250 g/ha [5] | pest or weed control at 15.625 g/ha [6] | pest or weed control at 62.5 g/ha [6] | pest or weed control at 250 g/ha [6] | pest or weed control at 15.625 g/ha [7] | pest or weed control at 62.5 g/ha [7] | plant injury at 15.625 g/ha [8] | plant injury at 62.5 g/ha [8] | plant injury at 250 g/ha [8] | pest or weed control at 15.625 g/ha [9] | pest or weed control at 62.5 g/ha [9] | pest or weed control at 15.625 g/ha [10] | pest or weed control at 62.5 g/ha [10] | pest or weed control at 250 g/ha [10] | pest or weed control at 15.625 g/ha [11] | pest or weed control at 62.5 g/ha [11] | pest or weed control at 250 g/ha [11] | pest or weed control at 15.625 g/ha [12] | pest or weed control at 62.5 g/ha [12] | pest or weed control at 250 g/ha [12]
30%: pest or weed control at 250 g/ha [4]
